Data on 15 compounds can be found in patent US6643591B1, “Use of computational and experimental data to model organic compound reactivity in cytochrome P450 mediated reactions and to optimize the design of pharmaceuticals” (University of Pittsburgh, priority 1998, dated 2003).

Values joined by “and” are separate entries in the source; they are usually repeats but may differ in a detail not shown here. Equal entries are not always repeated. Where two headings read alike, the source gives them in different places. Marks after values point to notes of the source that are not given here.

Broadly, the Vmax is the top rate of the reaction or transport when substrate is in excess.

Targets include CYP2C9 (Homo sapiens, UniProt P11712); CYP2E1 (Homo sapiens, UniProt P05181); CYP4B1 (Oryctolagus cuniculus, UniProt P15128).
In the next series the target is T1, CYP2B1 (Rattus norvegicus, UniProt P00176).
T1 sequence (P00176 1-491): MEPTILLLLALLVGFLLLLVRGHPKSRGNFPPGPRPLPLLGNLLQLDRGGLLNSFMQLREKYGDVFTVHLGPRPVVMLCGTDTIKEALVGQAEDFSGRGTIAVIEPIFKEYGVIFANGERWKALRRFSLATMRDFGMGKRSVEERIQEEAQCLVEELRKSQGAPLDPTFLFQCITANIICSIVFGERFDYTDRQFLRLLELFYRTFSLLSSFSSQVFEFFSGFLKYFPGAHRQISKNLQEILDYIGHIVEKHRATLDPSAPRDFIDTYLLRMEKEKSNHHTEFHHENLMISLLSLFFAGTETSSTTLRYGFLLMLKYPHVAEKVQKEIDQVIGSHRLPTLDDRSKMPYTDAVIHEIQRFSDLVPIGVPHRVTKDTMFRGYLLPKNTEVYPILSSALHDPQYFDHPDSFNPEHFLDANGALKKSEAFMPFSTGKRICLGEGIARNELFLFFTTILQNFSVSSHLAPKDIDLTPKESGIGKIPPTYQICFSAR

A further series has as its target T2, P450cam (Pseudomonas putida, UniProt P00183).
T2 construct: made in house
Put plainly: Intramolecular isotope effects with purified P450cam. In kind it is in vitro ADME, bacterial. The settings on record: benzylic hydroxylation, -CH2D (d1) substrate. The protocol:
For the intramolecular isotope effect experiments herein, a substrate is chosen that contains at least two symmetrical sites, with at least one site, but not all, isotopically labeled. A single concentration of substrate is incubated with enzyme, and the ratio of labeled to unlabeled compound in the isotopic mixture of products (or the corresponding rates of formation of products) are used to calculate a KIE.
Construction of expression plasmids for P450cam, Pd, and PdR as well as protein expression and purification have been described previously (Shimoji et al. (1998) Biochemistry 37, 8848-52).
Enzyme incubations with monodeuterated toluenes and p-xylene-α-^2H1-α′-^2H1 were performed in triplicate at a single substrate concentration of 0.25 mM. […] The kinetic parameters for metabolism of the substituted toluenes were determined by GC-MS analysis of the M-(dimethylsilyl) derivative of the product benzyl alcohols (see below).

Another series has as its target T3, CYP1A2 (Homo sapiens, UniProt P05177).
T3 sequence (P05177 1-516): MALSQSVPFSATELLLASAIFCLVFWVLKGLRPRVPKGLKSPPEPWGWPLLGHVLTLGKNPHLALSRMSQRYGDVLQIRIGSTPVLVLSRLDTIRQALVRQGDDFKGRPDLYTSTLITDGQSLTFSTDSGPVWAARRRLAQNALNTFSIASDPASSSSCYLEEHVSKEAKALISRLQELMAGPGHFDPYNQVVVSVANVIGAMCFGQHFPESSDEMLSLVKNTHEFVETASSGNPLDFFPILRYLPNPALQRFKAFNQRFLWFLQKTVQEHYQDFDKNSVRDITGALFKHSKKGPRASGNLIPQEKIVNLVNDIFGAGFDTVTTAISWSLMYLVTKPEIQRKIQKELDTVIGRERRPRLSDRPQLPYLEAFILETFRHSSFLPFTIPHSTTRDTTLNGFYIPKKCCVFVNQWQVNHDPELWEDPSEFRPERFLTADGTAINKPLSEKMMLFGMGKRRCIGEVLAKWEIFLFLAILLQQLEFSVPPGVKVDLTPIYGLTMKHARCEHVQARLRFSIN

A further series has as its target T4, CYP2B6 (Homo sapiens, UniProt P20813).
T4 sequence (P20813 1-491): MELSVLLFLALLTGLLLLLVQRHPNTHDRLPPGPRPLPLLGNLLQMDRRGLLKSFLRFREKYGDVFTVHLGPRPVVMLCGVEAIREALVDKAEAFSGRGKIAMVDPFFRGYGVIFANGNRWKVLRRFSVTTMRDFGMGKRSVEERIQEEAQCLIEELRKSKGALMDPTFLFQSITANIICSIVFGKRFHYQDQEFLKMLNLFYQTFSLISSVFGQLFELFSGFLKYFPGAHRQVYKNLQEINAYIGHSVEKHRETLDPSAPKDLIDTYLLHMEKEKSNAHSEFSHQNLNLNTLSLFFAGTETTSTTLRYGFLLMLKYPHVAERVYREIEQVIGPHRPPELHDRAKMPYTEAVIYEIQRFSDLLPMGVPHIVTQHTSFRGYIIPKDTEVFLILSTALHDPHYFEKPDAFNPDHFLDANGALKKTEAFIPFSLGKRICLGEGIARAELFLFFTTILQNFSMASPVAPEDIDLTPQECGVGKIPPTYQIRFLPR

Series [1] relates to CYP. Briefly: Experimental product ratios for aromatic oxidation. An excerpt: These equations may be solved with the data in Table 4, which provides experimental data for aromatic oxidation reactions with a number of substrates.
Experimental metabolite ratios may also be used to parameterize the aromatic oxidation reaction in a theoretical model for CYP reactions. As with hydrogen atom abstraction discussed in the previous Examples, experimental ratios of aromatic oxidation to an alternate position may be determined using various CYP enzymes. These substrates were chosen based on their small size, the presence of an alternate position for metabolism, and their hydrophobicity.
In order for the substrates to be useful, the average of the rotation rates in the active sites should be rapid. […] Several human expressed CYP enzymes were used in these studies, including CYP1A1, 1A2, 2A6, 2B6, 2C8, 2C9, 2D6, 2E1, 3A4, and 3A5. The use of multiple enzymes insures that a reasonable average of any orientation preferences within the active site (see FIG. 1).

Series [2] relates to CYP. The settings on record: cited from earlier work.
For series [3], the system named is CYP. Put plainly: Activation energy differences from experimental regioselectivity of substrates in rapid equilibrium. In kind it is in vitro ADME. Also on record: unit not given here. As to conditions: difference in activation energy calculated by the experimental regioselectivity. An excerpt:
Five substrates shown to undergo rapid equilibrium between positions of metabolism have been used to prepare data for regression and then correlation with Eq. 1. The differences in activation energy calculated by the experimental regioselectivity of the substrates, along with the differences in AM1 activation enthalpies, are given in Table 1. Regression of the experimental data gives a slope correction for AM1 activation energies of 0.75±0.20.

Sequence of CYP2C9 (P11712 whole entry): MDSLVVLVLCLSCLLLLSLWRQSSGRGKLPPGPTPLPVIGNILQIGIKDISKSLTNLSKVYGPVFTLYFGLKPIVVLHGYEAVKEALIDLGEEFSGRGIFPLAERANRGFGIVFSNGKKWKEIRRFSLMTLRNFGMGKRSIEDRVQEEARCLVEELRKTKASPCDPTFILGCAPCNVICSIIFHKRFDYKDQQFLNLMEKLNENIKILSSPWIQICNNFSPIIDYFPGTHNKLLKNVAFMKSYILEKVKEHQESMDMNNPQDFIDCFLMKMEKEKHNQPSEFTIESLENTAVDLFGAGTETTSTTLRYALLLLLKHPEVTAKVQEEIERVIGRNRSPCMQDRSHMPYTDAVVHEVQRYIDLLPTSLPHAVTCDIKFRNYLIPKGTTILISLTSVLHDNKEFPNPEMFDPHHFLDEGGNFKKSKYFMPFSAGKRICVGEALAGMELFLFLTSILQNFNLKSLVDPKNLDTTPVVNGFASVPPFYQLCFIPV
T2 sequence (P00183 2-415): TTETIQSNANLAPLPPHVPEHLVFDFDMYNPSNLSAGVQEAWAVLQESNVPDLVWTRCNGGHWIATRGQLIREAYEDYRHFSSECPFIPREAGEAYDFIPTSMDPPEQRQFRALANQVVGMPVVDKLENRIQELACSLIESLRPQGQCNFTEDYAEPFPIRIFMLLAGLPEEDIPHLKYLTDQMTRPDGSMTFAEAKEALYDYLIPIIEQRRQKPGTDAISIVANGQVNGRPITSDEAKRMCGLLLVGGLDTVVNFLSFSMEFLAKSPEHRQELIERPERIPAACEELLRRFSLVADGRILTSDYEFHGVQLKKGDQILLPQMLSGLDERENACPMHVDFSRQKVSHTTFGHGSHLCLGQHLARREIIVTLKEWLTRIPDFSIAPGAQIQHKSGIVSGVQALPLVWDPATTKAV
Sequence of CYP2E1 (P05181 whole entry): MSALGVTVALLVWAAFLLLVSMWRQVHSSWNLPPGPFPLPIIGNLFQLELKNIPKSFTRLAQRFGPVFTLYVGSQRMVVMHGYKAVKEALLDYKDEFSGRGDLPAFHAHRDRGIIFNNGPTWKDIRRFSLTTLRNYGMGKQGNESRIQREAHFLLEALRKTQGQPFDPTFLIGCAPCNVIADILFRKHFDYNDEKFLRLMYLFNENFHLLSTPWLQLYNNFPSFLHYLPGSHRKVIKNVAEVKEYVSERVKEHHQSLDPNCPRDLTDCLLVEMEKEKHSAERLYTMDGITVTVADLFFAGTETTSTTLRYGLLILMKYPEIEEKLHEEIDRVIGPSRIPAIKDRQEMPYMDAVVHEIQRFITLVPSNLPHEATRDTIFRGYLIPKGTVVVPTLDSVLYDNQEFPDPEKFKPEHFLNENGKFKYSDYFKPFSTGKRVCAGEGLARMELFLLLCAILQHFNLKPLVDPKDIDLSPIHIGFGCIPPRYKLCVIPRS
Sequence of CYP4B1 (P15128 whole entry): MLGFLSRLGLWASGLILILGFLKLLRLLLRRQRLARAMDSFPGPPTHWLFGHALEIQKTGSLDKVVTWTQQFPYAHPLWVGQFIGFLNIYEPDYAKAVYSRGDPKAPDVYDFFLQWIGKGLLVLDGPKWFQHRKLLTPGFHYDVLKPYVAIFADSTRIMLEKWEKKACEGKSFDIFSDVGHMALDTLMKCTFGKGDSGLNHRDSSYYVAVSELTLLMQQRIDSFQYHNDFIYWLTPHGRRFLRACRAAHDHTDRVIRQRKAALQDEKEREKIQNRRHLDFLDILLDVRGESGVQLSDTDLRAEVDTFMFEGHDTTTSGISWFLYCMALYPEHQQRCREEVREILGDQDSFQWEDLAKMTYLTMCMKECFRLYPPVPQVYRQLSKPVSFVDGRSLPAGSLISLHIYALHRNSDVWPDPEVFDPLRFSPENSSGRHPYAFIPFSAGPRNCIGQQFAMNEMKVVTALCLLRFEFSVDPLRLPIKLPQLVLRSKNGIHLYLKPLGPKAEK

Consider `Cc1ccc(Br)cc1` [Br, p-bromotoluene], for which the “Intramolecular KIE (kH/kD)” value is 6.9 at CYP2C9 (human, pH 7.4); 8.02 on CYP2B1; 8.3 on P450cam; 6.83 (8) on CYP1A2 (pH 7.4). Also, the “Intermolecular Noncompetitive ^DV” value on CYP2E1 (pH 7.4) was found to be 1.07 ± 0.04.

As to `[2H]Cc1ccc(C[2H])cc1` [CH2D, p-Xylene-α-^2H1-α′-^2H1], the “Intramolecular KIE (kH/kD)” value on CYP2C9 is listed as 5.9; at CYP2B1, 6.23; on P450cam it was 6.0; at CYP2E1, 5.45 (5); on CYP1A2, 5.59 (1).

For `[2H]C([2H])([2H])Oc1ccc(C)cc1` [p-Methylanisole-α-^2H3], on CYP2B1, the “nmol p-CR” value is reported as 3.3* nmol, the “nmol p-MBA” value is listed as 0.9* nmol and the “nmol total TP” value is 4.2* nmol. In addition, at CYP2E1, the Vmax is 18.0 nM/min, the “nmol p-CR” value was 18.2* nmol, the “nmol p-MBA” value is on record as 10.6* nmol and the “nmol total TP” value is listed as 29 nmol. For the same compound, at CYP2B6, the “nmol p-CR” value is reported as 9* nmol, the “nmol p-MBA” value is recorded as 2.39* nmol and the “nmol total TP” value amounted to 11 nmol. In addition, at CYP4B1, the “nmol p-CR” value is 52* nmol, the “nmol p-MBA” value was 48* nmol and the “nmol total TP” value is 100* nmol.

As for `[2H]C([2H])([2H])c1ccc(Br)cc1` [Br-d3], at CYP2E1, the V/K is 0.027 min⁻¹ and the Vmax stood at 54.8 nM/min.

For the compound `CCc1ccccc1` [Ethylbenzene], the “Experimental Ratio” value with CYP [1] (Arom/benz) stood at 0.086.

As to `[2H]C([2H])([2H])c1ccc(CCl)cc1` [α-Chloromethyl-p-xylene-α′-^2H3], the “nmol TP” value at CYP2C9 is reported as 1.8* nmol; on CYP2B1 it was 21.3 nmol; at CYP2E1, 31 nmol; at CYP2B6, 14* nmol; on CYP1A2, 47 nmol; on CYP4B1, 17.0* nmol. Moreover, the “nmol p-Alc” value on CYP2C9 is 0.10* nmol; at CYP2B1, 1.3* nmol; on CYP2E1 it was 0.78* nmol; on CYP2B6 it was 1.82* nmol; on CYP1A2, 1.3* nmol; on CYP4B1, 15.2* nmol. Besides, the “nmol p-Ald + TolA” value on CYP2C9 is listed as 1.7* nmol; at CYP2B1 it was 20.0* nmol; at CYP2E1, 30 nmol; at CYP2B6, 12* nmol; on CYP1A2, 46 nmol; on CYP4B1 it was 1.87* nmol.

For the compound `[2H]C([2H])([2H])c1ccccc1OC` [o-Methylanisole-α-^2H3], the “nmol TP” value at CYP2C9 is 3.9* nmol; at CYP2B1 it was 17* nmol; on CYP2E1, 19* nmol; at CYP2B6 it was 22 nmol; on CYP1A2, 17.2 nmol; on CYP4B1 it was 55 nmol. Further, the “nmol o-CR” value was 1.4* nmol on CYP2C9; 2.8* nmol on CYP2B1; 4.7* nmol at CYP2E1; 17* nmol on CYP2B6; 4.2* nmol at CYP1A2; 50* nmol at CYP4B1. Besides, the “nmol o-MBA” value at CYP2C9 is on record as 0.7* nmol; on CYP2B1 it was 0.36* nmol; on CYP2E1, 0.99* nmol; at CYP2B6, 0.95* nmol; at CYP1A2, 1.52* nmol; on CYP4B1 it was 3.5* nmol. Besides, the “nmol 4M3MPh” value is 13* nmol on CYP2B1; 13* nmol at CYP2E1; 3.3 nmol at CYP2B6; 11.5* nmol at CYP1A2; 1.9* nmol on CYP4B1.

For `Cc1ccc(Cl)cc1` [Cl, p-chlorotoluene], the “Intramolecular KIE (kH/kD)” value on CYP2C9 (human, pH 7.4) was 6.2; on CYP2B1, 8.1 and 8.06 ± 0.12; at P450cam, 6.5. The “Intermolecular Competitive ^D(V/K)” value on CYP2B1 worked out at 3.21 ± 0.02. Also, on CYP2E1 (pH 7.4), the “Intermolecular Noncompetitive ^DV” value is reported as 1.61 ± 0.01.

Take `CCCCCCCC` [Octane]: in the series on CYP [2] (Jones et al. 1987), the “Average P value (primary KIE)” value is reported as 7.6. Moreover, the “ΔΔG (experimental)” value in the series with CYP [3] is −3.13.

Regarding `[2H]C([2H])([2H])c1ccc(Cl)cc1` [Cl-d3], at CYP2E1, the V/K is 0.020 min⁻¹ and the Vmax was determined as 31.4 nM/min.

On to `Cc1ccccc1` [H, toluene], for which the “Intramolecular KIE (kH/kD)” value at CYP2B1 was 7; on CYP2E1 (pH 7.4) it was 6.1 (1); on CYP1A2 (pH 7.4), 6.1 (4). The “Isotope effect measured by White and McCarthy” value in the series on CYP [2] is on record as 2.

With `Cc1ccc(C)cc1` [CH3, p-xylene], in the series with CYP [2] (depending on the source of CYP), the “Benzylic hydroxylation, share of total oxidation / metabolism” value is on record as roughly 95%. For the same compound, on CYP2E1 (pH 7.4), the “Intermolecular Competitive ^D(V/K)” value amounted to 1.18 ± 0.03, the “Intermolecular Noncompetitive ^D(V/K)” value amounted to 1.19 ± 0.01, the “Intermolecular Noncompetitive ^DV” value was found to be 1.05 ± 0.03 and the “Intramolecular KIE (kH/kD)” value turned out to be 5.45 ± 0.05.

Consider `COc1ccccc1` [Anisole], for which, in the series with CYP [2] (calculated from the product ratios of Lindsay Smith et al.), the “Relative difference in energy for p-hydroxylation and demethylation” value was 0.6 kcal/mol. Moreover, in the series on CYP [2] (deuteration of the methyl group), the “Intermolecular isotope effect (Lindsay Smith et al.)” value is on record as 7. The “Ratio of p-hydroxyanisole to phenol, average” value in the series with CYP [2] (four microsomal systems (Lindsay Smith)) was 2.9. Further, the “Experimental Ratio” value in the series on CYP [1] (human) is reported as 10.6.

Regarding `Cc1ccc(C#N)cc1` [CN, p-tolunitrile], the “Intramolecular KIE (kH/kD)” value is reported as 11.1 on CYP2C9 (human, pH 7.4); 11.9 on CYP2B1; 11.6 at P450cam; 10.1 (1) at CYP2E1 (pH 7.4); 10.1 (2) on CYP1A2 (pH 7.4).

Turning to `CCCC(CCC)C(=O)O` [Valproate], the “ΔΔG (experimental)” value in the series with CYP [3] was −2.48.
